Source: patent US11000530B2, “Methods and compositions for the treatment of ophthalmic conditions” (Murray & Poole Enterprises, Limited, priority 2017, dated 2021)

Legend:
[1] = exposure to oxygen: oxygenation of diclofenac, degradation of ofloxacin into ofloxacin-N-oxide; cited from earlier work
[2] = Sedimentation in liquid solutions; format: physicochemical; details: micronized, particulate form

| SMILES | compatibility of diclofenac and ofloxacin [1] | time to sedimentation in liquid solutions [2] |
| --- | --- | --- |
| O=C(O)Cc1ccccc1Nc1c(Cl)cccc1Cl [Diclofenac] | generally incompatible |  |
| CC(=O)OCC(=O)[C@@]1(O)CC[C@H]2[C@@H]3CCC4=CC(=O)C=C[C@]4(C)[C@H]3[C@@H](O)C[C@@]21C [Prednisolone acetate] |  | less than one minute |
